Measurements from Sander's compilation of Henry's law constants (doi:10.1007/bf00479396).

Experiment: Henry solubility constant Hcp at 293 K (mol/(m3 Pa))
Conditions: reference: Tremp et al. (1993)

| SMILES | Henry solubility constant Hcp at 293 K |
| --- | --- |
| Cc1ccccc1O [1-hydroxy-2-methylbenzene] | 7.1 |
| Cc1ccc(O)cc1 [1-hydroxy-4-methylbenzene] | 13 |
| O=[N+]([O-])c1ccc(O)c([N+](=O)[O-])c1 [2,4-dinitrophenol] | 110 |
| O=[N+]([O-])c1ccccc1O [2-nitrophenol] | 0.77 |
| Cc1cc(O)ccc1[N+](=O)[O-] [3-methyl-4-nitrophenol] | 620 |
| CCC(C)c1ccc(O)c([N+](=O)[O-])c1 (configuration not stated) [4-(1-methylpropyl)-2-nitrophenol] | 0.1 |
| COc1ccc(O)c([N+](=O)[O-])c1 [4-methoxy-2-nitrophenol] | 5.3 |
| Cc1ccc(O)c([N+](=O)[O-])c1 [4-methyl-2-nitrophenol] | 0.67 |
| O=[N+]([O-])c1ccc(O)cc1 [4-nitrophenol] | 770 |
| O=[N+]([O-])c1ccc(F)cc1O [5-fluoro-2-nitrophenol] | 0.5 |
| Cc1ccc([N+](=O)[O-])c(O)c1 [5-methyl-2-nitrophenol] | 0.77 |
| Cc1cccc([N+](=O)[O-])c1O [6-methyl-2-nitrophenol] | 0.29 |
